Experimental findings from patent US20240199600A1, “CONDENSED HETEROCYCLIC COMPOUND HAVING A SULFONAMIDE GROUP OR SALT THEREOF, AGRICULTURAL OR HORTICULTURAL INSECTICIDE OR ANIMAL ECTOPARASITE OR ENDOPARASITE CONTROL AGENT COMPRISING THE COMPOUND OR THE SALT THEREOF, AND METHOD FOR USING THE COMPOUND OR THE SALT THEREOF, THE INSECTICIDE, OR THE …” (NIHON NOHYAKU CO., LTD., priority 2021, published 2024) are described below.

One assay deals with Plutella xylostella. The experiment in a line: whole plant or invertebrate. Particulars: in Brassica rapa, 144 h, read-out: insecticidal efficacy (corrected mortality rate), activity level. On the procedure:
Insecticidal test on Plutella xylostella
Adults of P. xylostella were released onto Chinese cabbage seedlings and allowed to lay eggs thereon. […] After air-dried, the seedlings were kept in a thermostatic chamber at 25° C. […] This test was conducted in triplicate using 10 adults of P. xviostella per plot.
Corrected mortality rate (%)100×(Number of hatched larvae in a non-treatment plot-Number of hatched larvae in a treatment plot)/Number of hatched larvae in a non-treatment plot [Math. 3]

Another assay has as its system Laodelphax striatelius. The experiment in a line: whole plant or invertebrate. Particulars: in Oryza sativa, 192 h, read-out: insecticidal efficacy (corrected mortality rate), activity level.

Source text for Laodelphax striatelius: Insecticidal test on Laodelphax striatelius
The sulfonamide group-containing condensed heterocyclic compounds represented by the general formula (1) of the present invention or salts thereof were separately dispersed in water and diluted to 500 ppm. Rice plant seedlings (variety: Nihonbare) were dipped in the agrochenrical dispersions for 30 seconds. After air-dried, each seedling was put into a separate glass test tube and inoculated with ten 3rd-instar larvae of L, striatellus, and then the glass test tubes were capped with cotton plugs. At 8 days after the inoculation, the numbers of surviving larvae and dead larvae were counted to determine the survival rate, the corrected mortality rate was calculated according to the formula shown below, and the insecticidal efficacy was evaluated according to the criteria shown below.

Consider `CN(C)S(=O)(=O)c1cc(C2CC2)cnc1-c1nc2cc(SC(F)(F)F)ccc2o1` [Compound 4-6, 5-cyclopropyl-N,N-dimethyl-2-(5-trifluoromethylthiobenzoxazol-2-yl)pyridine-3-sulfonamide], for which the mortality at 500 ppm in the assay with Plutella xylostella and with Laodelphax striatelius was 100% in each case.
